Test results taken from PubChem BioAssay AID1745844 (Carcinogenic Potency Database (CPDB), 2022).
Calls of active or inactive are those of the source. No rule for the calls is given here.

Tested on: rodent lifetime carcinogenesis bioassay, tumor incidence TD50
Assay: carcinogenic potency in animals, long-term in vivo studies, CPDB compilation (AID 1745844)

With `OCl` the carcinogen call (mouse, strain B6C3F1, females, in drinking water, site: any site (literature study), lesion: several types, types named in the paper, dosed 103 weeks, study length 106 weeks) was “negative (inactive)”, the carcinogen call (mouse, strain B6C3F1, females, in drinking water, site: liver, lesion: hepatocellular carcinoma, dosed 103 weeks, study length 106 weeks) was “negative (inactive)” and the carcinogen call (mouse, strain B6C3F1, females, in drinking water, site: liver, lesion: several types, types named in the paper, dosed 103 weeks, study length 106 weeks) was “negative (inactive)”. The TD50 (mouse, strain B6C3F1, females, in drinking water, site: lung, lesion: several types, types named in the paper, dosed 103 weeks, study length 106 weeks) was 22900 mg/kg/day (inactive), the TD50 (mouse, strain B6C3F1, males, in drinking water, site: any site (literature study), lesion: several types, types named in the paper, dosed 103 weeks, study length 106 weeks) was 350 mg/kg/day (inactive) and the carcinogen call (mouse, strain B6C3F1, males, in drinking water, site: liver, lesion: hepatocellular carcinoma, dosed 103 weeks, study length 106 weeks) was “negative (inactive)”. The TD50 (mouse, strain B6C3F1, males, in drinking water, site: liver, lesion: several types, types named in the paper, dosed 103 weeks, study length 106 weeks) was 876 mg/kg/day (inactive), the TD50 (mouse, strain B6C3F1, males, in drinking water, site: lung, lesion: several types, types named in the paper, dosed 103 weeks, study length 106 weeks) was 2040 mg/kg/day (inactive) and the TD50 (rat, strain F344/DuCrj, females, in drinking water, site: liver, lesion: several types, types named in the paper, dosed 104 weeks, study length 112 weeks) was 6300 mg/kg/day (inactive). The carcinogen call (rat, strain F344/DuCrj, males, in drinking water, site: liver, lesion: cholangioma, dosed 104 weeks, study length 112 weeks) was “negative (inactive)”, the carcinogen call (rat, strain F344/DuCrj, males, in drinking water, site: liver, lesion: fibrous histiocytoma, dosed 104 weeks, study length 112 weeks) was “negative (inactive)” and the carcinogen call (rat, strain F344/DuCrj, males, in drinking water, site: liver, lesion: several types, types named in the paper, dosed 104 weeks, study length 112 weeks) was “negative (inactive)”.
Compound `NC(=S)NNS(=O)(=O)c1ccccc1` has a TD50 (mouse, strain Swiss, females, by gavage, site: liver, lesion: liver-cell tumor, dosed 50 weeks, study length 60 weeks) of 46.6 mg/kg/day and a TD50 (mouse, strain Swiss, females, by gavage, site: lung, lesion: one or several types, types not named, dosed 50 weeks, study length 60 weeks) of 46.6 mg/kg/day.
With `NC(=O)NC1NC(=O)NC1=O` (configuration not stated) the carcinogen call (rat, strain Fischer 344, females, in feed, site: liver, lesion: neoplastic nodule, dosed 106 weeks, study length 128 weeks) was “negative (inactive)” and the carcinogen call (rat, strain Fischer 344, males, in feed, site: liver, lesion: neoplastic nodule, dosed 106 weeks, study length 128 weeks) was “negative (inactive)”.
For `C1N2CN3CN1CN(C2)C3`, the carcinogen call (mouse, strain C3Hf/Dp, females, in drinking water, site: any site (literature study), lesion: several types, types named in the paper, dosed 60 weeks, study length 105 weeks) was “negative (inactive)”, the TD50 (mouse, strain C3Hf/Dp, females, in drinking water, site: liver, lesion: angioma, dosed 60 weeks, study length 105 weeks) was 51900 mg/kg/day (inactive) and the carcinogen call (mouse, strain C3Hf/Dp, females, in drinking water, site: liver, lesion: hepatoma, dosed 60 weeks, study length 105 weeks) was “negative (inactive)”. The carcinogen call (mouse, strain C3Hf/Dp, females, in drinking water, site: lung, lesion: adenoma, dosed 60 weeks, study length 105 weeks) was “negative (inactive)”, the carcinogen call (mouse, strain C3Hf/Dp, males, in drinking water, site: any site (literature study), lesion: several types, types named in the paper, dosed 60 weeks, study length 105 weeks) was “negative (inactive)” and the TD50 (mouse, strain C3Hf/Dp, males, in drinking water, site: liver, lesion: angioma, dosed 60 weeks, study length 105 weeks) was 32300 mg/kg/day (inactive). The carcinogen call (mouse, strain C3Hf/Dp, males, in drinking water, site: liver, lesion: hepatoma, dosed 60 weeks, study length 105 weeks) was “negative (inactive)”, the TD50 (mouse, strain C3Hf/Dp, males, in drinking water, site: lung, lesion: adenoma, dosed 60 weeks, study length 105 weeks) was 293000 mg/kg/day (inactive) and the TD50 (mouse, strain CTM, females, in drinking water, site: Harderian gland, lesion: one or several types, types not named, dosed 50 weeks, study length 100 weeks) was 26300 mg/kg/day (inactive). The TD50 (mouse, strain CTM, females, in drinking water, site: any site (literature study), lesion: several types, types named in the paper, dosed 50 weeks, study length 100 weeks) was 11600 mg/kg/day (inactive), the carcinogen call (mouse, strain CTM, females, in drinking water, site: liver, lesion: angioma, dosed 50 weeks, study length 100 weeks) was “negative (inactive)” and the carcinogen call (mouse, strain CTM, females, in drinking water, site: lung, lesion: adenoma, dosed 50 weeks, study length 100 weeks) was “negative (inactive)”. For the same compound, the TD50 (mouse, strain CTM, females, in drinking water, site: several sites, sites named in the paper, lesion: one or several types, types not named, dosed 50 weeks, study length 100 weeks) was 20900 mg/kg/day (inactive), the carcinogen call (mouse, strain CTM, males, in drinking water, site: any site (literature study), lesion: several types, types named in the paper, dosed 50 weeks, study length 100 weeks) was “negative (inactive)” and the carcinogen call (mouse, strain CTM, males, in drinking water, site: liver, lesion: angioma, dosed 50 weeks, study length 100 weeks) was “negative (inactive)”. The carcinogen call (mouse, strain CTM, males, in drinking water, site: lung, lesion: adenoma, dosed 50 weeks, study length 100 weeks) was “negative (inactive)”, the carcinogen call (mouse, strain SWR, females, in drinking water, site: any site (literature study), lesion: several types, types named in the paper, dosed 60 weeks, study length 103 weeks) was “negative (inactive)” and the carcinogen call (mouse, strain SWR, females, in drinking water, site: liver, lesion: one or several types, types not named, dosed 60 weeks, study length 103 weeks) was “negative (inactive)”. For the same compound, the carcinogen call (mouse, strain SWR, females, in drinking water, site: lung, lesion: adenoma, dosed 60 weeks, study length 103 weeks) was “negative (inactive)”, the carcinogen call (mouse, strain SWR, males, in drinking water, site: any site (literature study), lesion: several types, types named in the paper, dosed 60 weeks, study length 103 weeks) was “negative (inactive)” and the carcinogen call (mouse, strain SWR, males, in drinking water, site: liver, lesion: angioma, dosed 60 weeks, study length 103 weeks) was “negative (inactive)”. The carcinogen call (mouse, strain SWR, males, in drinking water, site: lung, lesion: adenoma, dosed 60 weeks, study length 103 weeks) was “negative (inactive)”, the carcinogen call (rat, strain Wistar, females, in drinking water, site: any site (literature study), lesion: several types, types named in the paper, dosed 104 weeks, study length 146 weeks) was “negative (inactive)” and the carcinogen call (rat, strain Wistar, females, in drinking water, site: liver, lesion: one or several types, types not named, dosed 104 weeks, study length 146 weeks) was “negative (inactive)”. The carcinogen call (rat, strain Wistar, males, in drinking water, site: any site (literature study), lesion: several types, types named in the paper, dosed 104 weeks, study length 146 weeks) was “negative (inactive)” and the carcinogen call (rat, strain Wistar, males, in drinking water, site: liver, lesion: liver-cell carcinoma, dosed 104 weeks, study length 146 weeks) was “negative (inactive)”.
For `O=S1(=O)N=C(O)c2ccccc21`, the carcinogen call (rat, strain Fischer 344, males, in feed, site: forestomach, lesion: papilloma, dosed 72 weeks, study length 73 weeks) was “negative (inactive)” and the carcinogen call (rat, strain Fischer 344, males, in feed, site: urinary bladder, lesion: carcinoma, dosed 72 weeks, study length 73 weeks) was “negative (inactive)”.
For `C=CCOc1ccc(CC(=O)O)cc1Cl`, the carcinogen call (rat, strain Wistar, females, in feed, site: any site (literature study), lesion: several types, types named in the paper, dosed 104 weeks, study length 104 weeks) was “negative (inactive)”, the carcinogen call (rat, strain Wistar, females, in feed, site: liver, lesion: several types, types named in the paper, dosed 104 weeks, study length 104 weeks) was “negative (inactive)” and the TD50 (rat, strain Wistar, females, in feed, site: ovary, lesion: several types, types named in the paper, dosed 104 weeks, study length 104 weeks) was 390 mg/kg/day (inactive). For the same compound, the carcinogen call (rat, strain Wistar, males, in feed, site: any site (literature study), lesion: several types, types named in the paper, dosed 104 weeks, study length 104 weeks) was “negative (inactive)” and the carcinogen call (rat, strain Wistar, males, in feed, site: liver, lesion: several types, types named in the paper, dosed 104 weeks, study length 104 weeks) was “negative (inactive)”.
`CN=[N+](C)[O-]` was tested, and the TD50 (rat, strain Fischer 344, males, by gavage, site: Zymbal's gland, lesion: carcinoma, dosed 30 weeks, study length 65 weeks) was 0.204 mg/kg/day, the TD50 (rat, strain Fischer 344, males, by gavage, site: colon, lesion: malignant tumor, dosed 30 weeks, study length 65 weeks) was 0.171 mg/kg/day and the TD50 (rat, strain Fischer 344, males, by gavage, site: colon, lesion: one or several types, types not named, dosed 30 weeks, study length 65 weeks) was 0.102 mg/kg/day. The TD50 (rat, strain Fischer 344, males, by gavage, site: kidney, lesion: mesenchymal neoplasm, dosed 30 weeks, study length 65 weeks) was 0.3 mg/kg/day, the carcinogen call (rat, strain Fischer 344, males, by gavage, site: liver, lesion: one or several types, types not named, dosed 30 weeks, study length 65 weeks) was “negative (inactive)” and the TD50 (rat, strain Fischer 344, males, in drinking water, site: colon, lesion: several types, types named in the paper, dosed 30 weeks, study length 100 weeks) was 0.585 mg/kg/day. It also gave a TD50 (rat, strain Fischer 344, males, in drinking water, site: kidney, lesion: several types, types named in the paper, dosed 30 weeks, study length 100 weeks) of 0.388 mg/kg/day, a TD50 (rat, strain Fischer 344, males, in drinking water, site: liver, lesion: hemangiosarcoma, dosed 30 weeks, study length 100 weeks) of 0.982 mg/kg/day and a TD50 (rat, strain Fischer 344, males, in drinking water, site: liver, lesion: hepatocellular carcinoma, dosed 30 weeks, study length 100 weeks) of 0.0677 mg/kg/day. The TD50 (rat, strain Fischer 344, males, in drinking water, site: liver, lesion: neoplastic nodule, dosed 30 weeks, study length 100 weeks) was 28.6 mg/kg/day and the TD50 (rat, strain Fischer 344, males, in drinking water, site: liver, lesion: several types, types named in the paper, dosed 30 weeks, study length 100 weeks) was 0.0302 mg/kg/day.
Work on `CN(C#N)N=O` yielded a TD50 (rat, strain Sprague-Dawley, females, in drinking water, site: forestomach, lesion: carcinoma, dosed 60 weeks, study length 95 weeks) of 1.17 mg/kg/day and a TD50 (rat, strain Sprague-Dawley, females, in drinking water, site: forestomach, lesion: several types, types named in the paper, dosed 60 weeks, study length 95 weeks) of 0.48 mg/kg/day.
With `Cc1cn([C@H]2C[C@H](N=[N+]=[N-])[C@@H](CO)O2)c(=O)[nH]c1=O` the TD50 (mouse, strain B6C3F1, females, by gavage, site: any site (literature study), lesion: several types, types named in the paper, dosed 104 weeks, study length 104 weeks) was 221 mg/kg/day, the TD50 (mouse, strain B6C3F1, females, by gavage, site: liver, lesion: hepatocellular adenoma + hepatoblastoma + hepatocellular carcinoma, dosed 104 weeks, study length 104 weeks) was 139 mg/kg/day and the TD50 (mouse, strain B6C3F1, females, by gavage, site: lung, lesion: alveolar/bronchiolar adenoma + alveolar/bronchiolar carcinoma, dosed 104 weeks, study length 104 weeks) was 510 mg/kg/day. The TD50 (mouse, strain B6C3F1, females, by gavage, site: vagina, lesion: squamous-cell carcinoma + squamous-cell papilloma, dosed 104 weeks, study length 104 weeks) was 209 mg/kg/day, the TD50 (mouse, strain B6C3F1, females, by gavage, site: vagina, lesion: squamous-cell carcinoma, dosed 104 weeks, study length 104 weeks) was 246 mg/kg/day and the TD50 (mouse, strain B6C3F1, males, by gavage, site: Harderian gland, lesion: adenoma + carcinoma, dosed 104 weeks, study length 104 weeks) was 458 mg/kg/day. For the same compound, the TD50 (mouse, strain B6C3F1, males, by gavage, site: Harderian gland, lesion: adenoma, dosed 104 weeks, study length 104 weeks) was 425 mg/kg/day, the TD50 (mouse, strain B6C3F1, males, by gavage, site: kidney, lesion: tubule adenoma + tubule carcinoma, dosed 104 weeks, study length 104 weeks) was 929 mg/kg/day and the TD50 (mouse, strain B6C3F1, males, by gavage, site: kidney, lesion: tubule adenoma, dosed 104 weeks, study length 104 weeks) was 1250 mg/kg/day. It also gave a TD50 (mouse, strain Charles River CD1, females, by gavage, site: any site (literature study), lesion: several types, types named in the paper, dosed 95 weeks, study length 95 weeks) of 131 mg/kg/day, a TD50 (mouse, strain Charles River CD1, females, by gavage, site: vagina, lesion: several types, types named in the paper, dosed 95 weeks, study length 95 weeks) of 508 mg/kg/day and a TD50 (mouse, strain Charles River CD1, females, by gavage, site: vagina, lesion: squamous-cell carcinoma, dosed 95 weeks, study length 95 weeks) of 715 mg/kg/day. For the same compound, the carcinogen call (mouse, strain Charles River CD1, males, by gavage, site: any site (literature study), lesion: several types, types named in the paper, dosed 82 weeks, study length 82 weeks) was “negative (inactive)”, the TD50 (rat, strain Charles River CD (Sprague-Dawley), females, by gavage, site: vagina, lesion: squamous-cell carcinoma, dosed 95 weeks, study length 95 weeks) was 11600 mg/kg/day and the carcinogen call (rat, strain Charles River CD (Sprague-Dawley), males, by gavage, site: any site (literature study), lesion: several types, types named in the paper, dosed 103 weeks, study length 103 weeks) was “negative (inactive)”.
